# Measurements from US8420574B2, “Plant growth enhancement with combinations of PESA and herbicides” (Valent BioSciences Corporation, priority 2009, dated 2013).
# Structures can show the parent of a compound that is named as a salt.
# Tested on: rice cv. Cheniere
# Assay: Pouch assay, PESA salt and herbicide added to the pouch solution; root and shoot length
# Format: in vivo
# Protocol: Alternatively, PESA salt and herbicides may be added separately to the sterile water in the growth pouch.
# Seeds were placed in germination pouches consisting of germination paper hydrated with sterile water that was an insert in a gas-permeable 16×14 cm plastic pouch (CYG Pouch; Mega International, St. Paul, Minn.). In these examples, in pouch solution evaluation, PESA sodium salt or other active ingredients were added to the sterile water in the pouch. The pouches were arranged in a completely randomized block design in growth racks and placed in 19-liter polycarbonate food storage containers (Rubbermaid Commercial Products, Winchester, Va.). The sealed containers were held in an upright growth cabinet maintained at 25 C with a 12 hour light: 12 hour dark photoperiod. After 6 days, the containers were removed from the growth cabinet, and the lengths of the roots and shoot were measured.
smiles,measurement,setting,value
"O=C(O)CCC(=O)NCCc1ccccc1 [PESA salt, N-(2-phenylethyl)succinamic acid]",Shoot Length,"0 ppm pendimethalin, treatment 30 ppm PESA salt, 10 ppm GA3 or both, untreated 3.9",3.8 cm
same,Root Length,"0 ppm pendimethalin, treatment 30 ppm PESA salt, 10 ppm GA3 or both, untreated 9.7",11.2 cm
same,Shoot Length,"10 ppm dithiopyr, treatment none (Control), 30 ppm PESA salt, 10 ppm GA3 or both, untreated 3.9",2.8 cm
same,Root Length,"10 ppm dithiopyr, treatment none (Control), 30 ppm PESA salt, 10 ppm GA3 or both, untreated 9.5",6.4 cm
same,Shoot Length,"30 ppm PESA salt, 0 ppm chlorsulfuron, untreated 4.8",4.9 cm
same,Root Length,"30 ppm PESA salt, 0 ppm chlorsulfuron, untreated 11.6",12.8 cm
same,Shoot Length,"30 ppm PESA salt, 0 ppm dithiopyr, untreated 4.0",4.2 cm
same,Root Length,"30 ppm PESA salt, 0 ppm dithiopyr, untreated 9.5",12.2 cm
same,Shoot Length,"30 ppm PESA salt, 0 ppm metolachlor, untreated 3.7",3.7 cm
same,Root Length,"30 ppm PESA salt, 0 ppm metolachlor, untreated 9.3",10.9 cm
same,Shoot Length,"30 ppm PESA salt, 0 ppm pendimethalin, untreated 3.4",3.6 cm
same,Root Length,"30 ppm PESA salt, 0 ppm pendimethalin, untreated 8.5",10.1 cm
same,Shoot Length,"30 ppm PESA salt, 0 ppm trifluralin, untreated 3.2",3.7 cm
same,Root Length,"30 ppm PESA salt, 0 ppm trifluralin, untreated 9.2",10.7 cm
same,Shoot Length,"30 ppm PESA salt, 1 ppm dithiopyr, untreated 4.0",4.0 cm
same,Root Length,"30 ppm PESA salt, 1 ppm dithiopyr, untreated 9.5",11.4 cm
same,Shoot Length,"30 ppm PESA salt, 1 ppm metolachlor, untreated 3.7",3.9 cm
same,Root Length,"30 ppm PESA salt, 1 ppm metolachlor, untreated 9.3",8.6 cm
same,Shoot Length,"30 ppm PESA salt, 1 ppm trifluralin, untreated 3.2",3.6 cm
same,Root Length,"30 ppm PESA salt, 1 ppm trifluralin, untreated 9.2",10.6 cm
same,Shoot Length,"30 ppm PESA salt, 10 ppm chlorsulfuron, untreated 4.8",0.9 cm
same,Root Length,"30 ppm PESA salt, 10 ppm chlorsulfuron, untreated 11.6",0.5 cm
same,Shoot Length,"30 ppm PESA salt, 10 ppm dithiopyr, untreated 4.0",3.7 cm
same,Root Length,"30 ppm PESA salt, 10 ppm dithiopyr, untreated 9.5",9.1 cm
same,Shoot Length,"30 ppm PESA salt, 10 ppm metolachlor, untreated 3.7",0.9 cm
same,Root Length,"30 ppm PESA salt, 10 ppm metolachlor, untreated 9.3",4.4 cm
same,Shoot Length,"30 ppm PESA salt, 10 ppm pendimethalin, untreated 3.4",3.2 cm
same,Root Length,"30 ppm PESA salt, 10 ppm pendimethalin, untreated 8.5",9.4 cm
same,Shoot Length,"30 ppm PESA salt, 10 ppm trifluralin, untreated 3.2",2.9 cm
same,Root Length,"30 ppm PESA salt, 10 ppm trifluralin, untreated 9.2",9.1 cm
same,Shoot Length,"30 ppm PESA salt, 100 ppm chlorsulfuron, untreated 4.8",0.8 cm
same,Root Length,"30 ppm PESA salt, 100 ppm chlorsulfuron, untreated 11.6",0.3 cm
same,Shoot Length,"30 ppm PESA salt, 100 ppm dithiopyr, untreated 4.0",1.1 cm
same,Root Length,"30 ppm PESA salt, 100 ppm dithiopyr, untreated 9.5",0.4 cm
same,Shoot Length,"30 ppm PESA salt, 100 ppm metolachlor, untreated 3.7",0.6 cm
same,Root Length,"30 ppm PESA salt, 100 ppm metolachlor, untreated 9.3",1.7 cm
same,Shoot Length,"30 ppm PESA salt, 100 ppm pendimethalin, untreated 3.4",1.0 cm
same,Root Length,"30 ppm PESA salt, 100 ppm pendimethalin, untreated 8.5",3.1 cm
same,Shoot Length,"30 ppm PESA salt, 100 ppm trifluralin, untreated 3.2",2.4 cm
same,Root Length,"30 ppm PESA salt, 100 ppm trifluralin, untreated 9.2",5.1 cm
same,Shoot Length,"30 ppm PESA salt, 500 ppm pendimethalin, untreated 3.4",0.5 cm
same,Root Length,"30 ppm PESA salt, 500 ppm pendimethalin, untreated 8.5",0.6 cm
same,protection of roots from herbicide,30 ppm PESA with 10 ppm dithiopyr,protected the roots largely from the negative effects of dithiopyr
same,protection of roots from herbicide,30 ppm PESA with 100 ppm trifluralin,largely protected the roots from the negative effects of trifluralin
same,Shoot Length,"50 ppm pendimethalin, treatment none (Control), 30 ppm PESA salt, 10 ppm GA3 or both, untreated 3.9",1.1 cm
same,Root Length,"50 ppm pendimethalin, treatment none (Control), 30 ppm PESA salt, 10 ppm GA3 or both, untreated 9.7",5.6 cm
same,root length greater than with pendimethalin alone,"PESA and pendimethalin, on average",20%
same,root length relative to pendimethalin alone,PESA salt added to pendimethalin (Table 4),twice the length of those grown in pendimethalin alone
same,effect on root and shoot length,PESA salt in the absence of trifluralin,significant increase in both root and shoot length
same,protection of roots from herbicide,PESA salt with 10 ppm metolachlor,partially protected primary root length
same,protection of root length from herbicide,"PESA salt with chlorsulfuron, rice",had no activity in combination with chlorsulfuron
same,effect on shoot length under herbicide,PESA salt with dithiopyr,did not significantly alter the negative effects of dithiopyr on shoot length
same,effect on shoot growth under herbicide,PESA salt with pendimethalin,did not overcome the negative effects of pendimethalin on shoot growth
same,effect on shoot length under herbicide,PESA salt with trifluralin,did not consistently overcome the negative effects of trifluralin on shoot length
same,root length increased by,addition of 30 ppm PESA to 100 ppm pendimethalin,25%
same,Shoot Length,"no dithiopyr (Control), treatment 30 ppm PESA salt, 10 ppm GA3 or both, untreated 3.9",3.6 cm
same,Root Length,"no dithiopyr (Control), treatment 30 ppm PESA salt, 10 ppm GA3 or both, untreated 9.5",10.7 cm
